Consider 2 compounds from patent US12297192B2, “Crystal form of pyrimidine sulfonamide compound and preparation method therefor” (WUXI BIOCITY BIOPHARMACEUTICS CO., LTD., priority 2019, dated 2025).

A short description of data set [1]: Pharmacokinetics accompanying the efficacy in the MCT-induced rat model of pulmonary hypertension. It counts as in vivo, SD rats. Conditions: day 21, mean, n = 3; for MRT inf: read-out: MRT0-inf; for MRT last: read-out: MRT0-last. The method, then:
Blood samples were taken before and after dosing on the day of the endpoint, at time points of 0, 0.25, 0.5, 1, 2, 4, 6 and 8 h. The rats were placed in a fixator, 250 μL of blood was collected from the tail vein, transferred to an EP tube with anticoagulant (5-8 μL of 15% EDTA), inverted and shaken, and immediately placed on wet ice for temporary storage. The collected blood samples were placed in centrifugal machines and centrifuged at 4° C., 3000 rpm for 15 min. The plasma was collected after centrifugation and immediately placed on dry ice. After all samples have been collected and transferred to cryopreservation at −80° C. for pharmacokinetic analysis.
Blood samples were collected before and after dosing on day 21 and collected at time points 0, 0.25, 0.5, 1, 2, 4, 6 and 8 h for analysis of plasma drug concentrations of the compound of formula (I) and Macitentan.

The target of data set [2] is T1, Human Pregnane X Receptor (PXR) (Homo sapiens, UniProt O75469).
T1 construct: host or cells: DPX2 cells
T1 sequence (O75469 1-434): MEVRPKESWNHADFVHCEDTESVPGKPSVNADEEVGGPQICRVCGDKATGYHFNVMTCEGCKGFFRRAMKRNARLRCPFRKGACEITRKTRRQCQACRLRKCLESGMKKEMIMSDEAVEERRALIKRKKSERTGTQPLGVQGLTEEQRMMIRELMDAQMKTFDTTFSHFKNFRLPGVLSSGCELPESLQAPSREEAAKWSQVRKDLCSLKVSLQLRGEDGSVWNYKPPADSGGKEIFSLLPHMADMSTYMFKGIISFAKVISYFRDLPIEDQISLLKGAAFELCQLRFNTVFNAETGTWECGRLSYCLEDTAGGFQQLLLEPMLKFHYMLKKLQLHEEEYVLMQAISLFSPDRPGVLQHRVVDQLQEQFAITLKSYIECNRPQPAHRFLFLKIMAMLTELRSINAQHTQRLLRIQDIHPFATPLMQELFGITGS
Kind of data set: Human pregnane X receptor (PXR) test, induction of PXR-mediated CYP3A expression in DPX2 cells. The data set is classed as in vitro ADME. The method, then:
To assess the induction of PXR-mediated CYP3A expression by the compounds.
Experimental Protocol: • 1. The DPX2 cells was thawed under aseptic conditions. • 2. The DPX2 cytosol was distributed in 96-well plates (100 μl/well) and placed the plates in a 5% CO2/37° C. incubator overnight. • 3. The quantitative feeding medium was thawed in a 37° C. water bath. The positive control rifampicin was thawed at room temperature. A series of the test compound and positive control dilutions were prepared in quantitative feeding medium. The medium was carefully aspirated and discarded from each well, without disturbing the cells during the aspiration process. […] Enzyme activity test: • (1) 7 μl of Luciferin-IPA was added to 7 ml of quantitative feeding medium, inverted to mix, and poured into the Luciferin-IPA reagent tank. • (2) The 96-well plate was taken out of the incubator and the medium was carefully aspirated from each well. […] The plate was placed back to the incubator for 60 minutes. • (7) 40 μl of Luciferin detection reagent/P450-Glo buffer was added to each well of the replicate plate, stirred and incubated for 20 minutes at room temperature. • (8) After incubation with Luciferin detection reagent for 20 minutes, a luminometer (set for 1-5 seconds. Read out time) was used to determine the luminescence of each well of the white 96-well plate. […] The fluorescence intensity of each well was measured. […]

Setting [3] is: Sprague-Dawley, rat, plasma, po, 1 mg/kg gavage.
The mark [4] stands for this setting: Sprague-Dawley, rat, plasma, po, 3 mg/kg gavage.
[5] abbreviates: Sprague-Dawley, rat, plasma, po, 30 mg/kg gavage.

The structures appear in SMILES notation. Where two headings read alike, the source gives them in different places.

By AUC(0-t) is commonly meant exposure summed from dosing to a finite time, without extrapolation to infinity. The low end stands for low exposure, the high end for high exposure. What is called Cmax is the peak of the concentration-time curve. By Tmax is commonly meant the time from dosing to the highest level. By half-life is commonly meant the time in which the quantity being followed falls by half. A high value points to slow decline. On to `COCCNS(=O)(=O)Nc1ncnc(OCCOc2ncc(Br)cn2)c1-c1ccc2c(c1)OCO2` [Compound of formula (I)], for which, in data set [1] (1 mg/kg gavage), the AUC0-inf/AUC0-last is on record as 111% and the Tlast came to 8.00 h. Besides, in data set [1] (3 mg/kg gavage), the AUC0-inf/AUC0-last is given as 132%, the AUC(0-inf) was determined as 5540 ng·h/mL and the Tlast is 8.00 h. Further, the AUC(0-inf) in data set [1] (Sprague-Dawley, rat, plasma, po, 1 mg/kg, 1 mg/kg gavage, read-out: AUC0-inf) was 1410 ng·h/mL. For the same compound, the AUC(0-inf) in data set [1] (Sprague-Dawley, rat, plasma, po, 3 mg/kg, 3 mg/kg gavage, read-out: AUC0-inf) stood at 5230 ng·h/mL. Moreover, in data set [1] (setting [3]), the AUC(0-t) was 1270 ng·h/mL, the peak level (Cmax) was 345 nM, the Tmax came to 1 h and the half-life was 2.3 h. Besides, in data set [1] (setting [3]), the MRT inf is 3.64 h and the MRT last worked out at 2.83 h. In addition, in data set [1] (setting [4]), the AUC(0-t) came to 4220 ng·h/mL, the Cmax is 1120 nM, the Tmax came to 1 h and the half-life was 3.64 h. In data set [1] (setting [4]), the MRT inf was determined as 5.52 h and the MRT last turned out to be 3.04 h. Further, the “Induction of PXR-mediated CYP3A expression (in words)” value in data set [2] is “weak induction”.
`CCCNS(=O)(=O)Nc1ncnc(OCCOc2ncc(Br)cn2)c1-c1ccc(Br)cc1` [Macitentan, reference compound]: the Tlast in data set [1] (30 mg/kg gavage) is reported as 8.00 h. For the same compound, in data set [1] (setting [5]), the AUC(0-t) came out at 11000 ng·h/mL, the concentration peaked (Cmax) at 1840 nM, the time of peak concentration (Tmax) was determined as 4.08 h and the MRT last is 4.38 h. In data set [2], the “Induction of PXR-mediated CYP3A expression (in words)” value is listed as “strong induction”.
